In patent US4855304A, “Dinucleoside pyrophosphates and pyrophosphate homologs as plant antivirals” (Repligen Corporation, priority 1985, dated 1989):
Read-outs that look alike come from different tables or passages of the source.

How the values were obtained:
[1] = system: TMV (tobacco mosaic virus) replication in intact N. glutinosa plants; assay: Antiviral activity in N. glutinosa intact plants, infectivity test (local lesions); format: in vivo, tobacco mosaic virus; Nicotiana glutinosa; details: for induced resistance to TMV infection in the non-treated half-leaf: 1 μM (10^-6 M), in words
Protocol: (§1) Nicotiana glutinosa and N. tabacum var. samsum plants were grown in potting medium in greenhouse conditions (25±3° C., and constant illumination). The plants were fertilized with a commercial fertilizer every two weeks. Plants were used at 5-8 leaf stage (Devash, Y., Biggs, S. and Sela, I. [1982] Science 216: 1415-1416; Devash, Y. et al. [1984] Jour. Biol. Chem. 259: 3482-3486).
The ability of the antiviral dinucleotides to inhibit TMV replication in intact N. glutinosa plants (containing N-gene for TMV localization) was determined by infectivity tests. Solutions containing 5 μg/ml TMV, 0.1 μg/ml carborundum, and antiviral dinucleotide were applied to 5 half-leaves of N. glutinosa. The opposite half-leaves served as controls and were inoculated with infecting solution containing TMV and carborundum but no dinucleotides. The infection was allowed to proceed 48 hr. Inhibition of TMV replication was calculated as the percent of local lesions produced in antiviral compound treated half-leaves, as compared to control half-leaves.

[2] = system: TMV (tobacco mosaic virus) in N. tabacum plants; assay: Root application to N. tabacum intact plants (TMV content by ELISA); format: in vivo, tobacco mosaic virus; Nicotiana tabacum; details: for suppression (inhibition) of the virus: 1 μM (10^-6 M), exposure of plant roots; for % Protection / ng TMV/g of leaves: 1 μM, roots, 2 hr; for ng TMV/g of leaves: control 200
Protocol: as §1
Nicotiana tabacum plants were used as a source of plant tissue in which TMV is spread systemically.
(a) Root application: N. tabacum plants were removed from their pots and transferred into 50 ml tubes containing 10 ml of 10 mM HEPES-KOH, pH 7.6, and the antiviral dinucleotides. Two hr later, plants were transferred into 50 ml tubes lacking the antiviral compound and were inoculated by TMV as described above. Twenty-four hr later leaves were homogenized in 0.01M sodium phosphate buffer, pH 7.6, (1 g leaves/3 ml buffer) and TMV content was determined by ELISA.
(§2) The TMV content of the homogenates was determined by ELISA essentially by the method of Clark and Adams ([1977] J. Gen. Virol. 34: 475-483) but with the following order of layers on the microtiter plates.
(§3) (a) the γ-globulin fraction of a serum obtained from a chicken immunized against TMV was absorbed directly to the plate.
(§4) (b) The next layer was the tested sample (at various dilutions) or a series of purified TMV suspensions at known concentrations (calibration curve).
(§5) (c) The third layer was the γ-globulin from the serum of a TMV-immunized rabbit.
(§6) (d) The final layer was goat antibody to rabbit immunoglobulin G conjugated with alkaline phosphatase (Sigma). The release of phosphate from p-nitrophenyl phosphate due to the antibody-conjugated alkaline phosphatase was monitored spectrophotometrically with a Microplate reader (Dynatech Diagnostics, Inc. South Windham, ME) and was proportional to TMV concentration in a log linear manner for about two logs (<2 ng to>200 ng). (Devash, Y., Biggs, S. and Sela, I. [1982] Science 216: 1415-1416)
In order to establish the relationship of the induced resistance to the N-gene for viral localization and to the transmission ability of the compounds, a comparison between leaf application and root application of antiviral dinucleotides to N. tabacum plants was made. N. tabacum plants were removed into vials containing 10 ml of 10 mM HEPES-KOH, pH 7.6, and 1 μM of antiviral dinucleotide. The plant roots were allowed to remain in the solutions for 2 hr and then were transferred to vials containing the buffer without the antiviral compounds.
The plants then were infected with TMV as above. (See section 4. Antiviral activity on N. tabacum intact plants, paragraph [a].) Another group of N. tabacum plants was tested as described in the above-noted section, paragraph (b).

[3] = system: TMV (tobacco mosaic virus) replication in TMV-infected tobacco leaf discs; assay: Antiviral activity in TMV-infected leaf discs (TMV content by ELISA); format: cell-based, tobacco mosaic virus; leaf discs of N. tabacum var. samsun; set-up: key to TMV content: N.I.: no inhibition; details: for inhibition at 0.1 µM / inhibition at 0.2 µM: Tobacco mosaic virus, read-out: percent inhibition as related to control
Protocol: Assays for antiviral activity in TMV-infected leaf discs were done using leaves of N. tabacum var. samsun in which TMV is systemically spread. Leaves were mechanically inoculated with purified TMV (5 μg/ml in 0.01M sodium phosphate buffer, pH 7.6, containing 0.1 g/ml of carborundum as an abrasive). Immediately after infection, leaf discs (6.5 mm diameter) were punched out of the inoculated leaves and placed in a beaker containing 0.01M sodium phosphate, pH 7.6.
selected at random from this common pool and placed onto separate petri dishes, each containing 18 ml of 10 mM 4-(2-hydroxyethyl)-1-piperazine ethanesulfonic acid (HEPES)-KOH, pH 7.05, 188 mg/L Na2 HPO4 --7H2 O. […] At the end of the 1 hr incubation, the buffer containing the antiviral dinucleotide was replaced by a buffer lacking the antiviral dinucleotide for another hr. The discs were then washed with 0.01M sodium phosphate, pH 7.6, and were allowed to incubate for an additional 72 hr in phosphate buffer (Devash, Y., Biggs, S. and Sela, I. [1982] Science 216: 1415-1416; Devash, Y. et al. [1984] J. Biol. Chem. 259: 3482-3486). The discs were homogenized in 0.01M sodiuM phosphate buffer, pH 7.6, and the TMV content was determined by enzyme-linked immunosorbent assay (ELISA) as described below.
as §2, §3, §4, §5, §6
The γ-globulin fraction of serum obtained from chickens and rabbits immunized against TMV were generous gifts from Professor Ilan Sela, The Hebrew University of Jerusalem, Agriculture Faculty, Rehobot, Israel.

[4] = 10 nM (10^-8 M), non-treated half-leaf
[5] = 10 nM (10^-8 M), treated half-leaf
[6] = 100 nM (10^-7 M), non-treated half-leaf
[7] = 100 nM (10^-7 M), treated half-leaf
[8] = 1000 nM (10^-6 M), non-treated half-leaf
[9] = 1000 nM (10^-6 M), treated half-leaf
[10] = 100 nM, treatment with [Ca^+2] coprecipitation, control 75
[11] = 100 nM, treatment without [Ca^+2] coprecipitation, control 56
[12] = 200 nM, treatment with [Ca^+2] coprecipitation, control 75
[13] = 200 nM, treatment without [Ca^+2] coprecipitation, control 56
[14] = 100 nM, treatment with [Ca^+2] coprecipitation
[15] = 100 nM, treatment without [Ca^+2] coprecipitation
[16] = 200 nM, treatment with [Ca^+2] coprecipitation
[17] = 200 nM, treatment without [Ca^+2] coprecipitation

With Nc1ncnc2c1ncn2[C@@H]1O[C@H](COP(=O)(O)OP(=O)(O)OC[C@H]2O[C@@H](n3cnc4c(N)ncnc43)[C@H](O)[C@@H]2O)[C@@H](O)[C@H]1O [A5'pp5'A, diadenosine 5',5'"-p^1,p^2 -diphosphate] the “percent protection as compared to control TMV infected leaves” value (from here on “percent protection”) [1, 4] was 68.4%, the “percent protection” value [1, 5] was 96.0% and the “percent protection” value [1, 6] was 54.6%. For the same compound, the “percent protection” value [1, 7] was 95.4%, the “induced resistance to TMV infection in the non-treated half-leaf” value [1] was “resulted in an induced resistance to TMV infection even in the non-treated half-leaf” and the “percent protection” value [1, 8] was 100%. The “percent protection” value [1, 9] was 100%, the “suppression (inhibition) of the virus” value [2] was 98-100% and the “% Protection” value [2] was 100%. The “ng TMV/g of leaves” value [2] was 0 ng TMV/g of leaves, the TMV content [3, 10] was 48 ngTMV/ml and the TMV content [3, 11] was “N.I”. The TMV content [3, 12] was 44 ngTMV/ml, the TMV content [3, 13] was “N.I” and the inhibition at 0.1 µM [3, 14] was 36%. For the same compound, the inhibition at 0.1 µM [3, 15] was 0%, the inhibition at 0.2 µM [3, 16] was 41% and the inhibition at 0.2 µM [3, 17] was 0%.

Nc1nc2c(ncn2[C@@H]2O[C@H](COP(=O)(O)OP(=O)(O)OC[C@H]3O[C@@H](n4cnc5c(N)ncnc54)[C@H](O)[C@@H]3O)[C@@H](O)[C@H]2O)c(=O)[nH]1 [A5'pp5'G, adenosine 5',5'"-p^1,p^2 -diphospho-guanosine] was tested, and the “percent protection” value [1, 4] was 59.8%, the “percent protection” value [1, 5] was 84.8% and the “percent protection” value [1, 6] was 44.7%. For the same compound, the “percent protection” value [1, 7] was 89.5%, the “induced resistance to TMV infection in the non-treated half-leaf” value [1] was “resulted in an induced resistance to TMV infection even in the non-treated half-leaf” and the “percent protection” value [1, 8] was 100%. For the same compound, the “percent protection” value [1, 9] was 100%, the “suppression (inhibition) of the virus” value [2] was 98-100% and the “% Protection” value [2] was 98%. For the same compound, the “ng TMV/g of leaves” value [2] was 4 ng TMV/g of leaves.

For Nc1ncnc2c1ncn2[C@@H]1O[C@H](COP(=O)(O)OP(=O)(O)OP(=O)(O)OC[C@H]2O[C@@H](n3cnc4c(N)ncnc43)[C@H](O)[C@@H]2O)[C@@H](O)[C@H]1O [A5'ppp5'A, diadenosine 5',5"'-p^1,p3 -triphosphate], the “percent protection” value [1, 4] was 80.3%, the “percent protection” value [1, 5] was 98.6% and the “percent protection” value [1, 6] was 100%. For the same compound, the “percent protection” value [1, 7] was 100%, the “induced resistance to TMV infection in the non-treated half-leaf” value [1] was “resulted in an induced resistance to TMV infection even in the non-treated half-leaf” and the “percent protection” value [1, 8] was 100%. For the same compound, the “percent protection” value [1, 9] was 100%, the “% Protection” value [2] was 51% and the “ng TMV/g of leaves” value [2] was 98 ng TMV/g of leaves. The TMV content [3, 10] was 65 ngTMV/ml, the TMV content [3, 11] was “N.I” and the TMV content [3, 12] was 38 ngTMV/ml. The TMV content [3, 13] was “N.I”, the inhibition at 0.1 µM [3, 14] was 13% and the inhibition at 0.1 µM [3, 15] was 0%. For the same compound, the inhibition at 0.2 µM [3, 16] was 50% and the inhibition at 0.2 µM [3, 17] was 0%.
